Reference: US8703813B2, “Compound with spiro chiral carbon backbone, preparation method thereof, and pharmaceutical composition containing the same” (SNU R & DB Foundation, priority 2008, dated 2014)

Assays:
C3H/10T1/2 cells = assay: Osteoblast formation activity (calcium deposition assay, Alizarin Red S); type: cell-based, mouse
Protocol: C3H/10T1/2 cells, which are mouse mesenchymal progenitor cells purchased from ATCC, were diluted in DMEM (Dulbecco's Modified Eagle Medium) medium containing 5.958 g/L HEPES, 3.7 g/L sodium bicarbonate, and 10% FBS (fetal bovine serum), and cultured in 24-well culture plates at a density of 4×10^4 cells/well, in the presence of 5% CO2 at 37° C. for 2 days. The cultured cells were grown to 90˜100% confluency in the culture plates, the cells were cultured in DMEM medium containing 10% FBS, to which 10 mM of β-glycerophosphate and 50μ/ml of ascorbic acid were added, in the presence of 5% CO2 at 37° C. for 6 days, to induce differentiation into osteoblast. The medium was exchanged every other day during differentiation. The C3H/10T1/2 cell line, in which differentiation into the osteoblast was induced, was washed with PBS (Phosphate Buffered Saline) once, and fixed with 70% ethanol at 20° C. for 1 hour. The cells after fixing were washed with cold PBS three times, and stained with 40 mM Alizarin Red S dye solution at room temperature for 20 minutes. The dye solution was removed and the cells were washed with distilled water three times in order to selectively observe only the cells differentiated into the osteoblast.
An aliquot 116V and an aliquot 116VI extracted and partitioned from sponges are dissolved in a DMSO solvent, and used to treat the C3H/10T1/2 cell line, mesenchymal progenitor cells, at concentrations of 1, 2.5, 5, 10, and 20 ug/ml. […] Since then, the same experiment was performed on the compound (1163), the compound 2 (1162), the compound 3 (1161), and the compound 4 (1164), which were purely separated from the aliquots 116V and 116VI, and as a result, it could be confirmed that the osteoblast differentiation ability was increased in the compounds 1, 3, and 4. […] To study a mechanism with respect to osteoblast differentiation ability, the C3H/10T1/2 cell lines were treated with the compound 1 and the compound 4 for 6 days, respectively. […] Also, the C3H/10T1/2 cell lines were treated with the compound 1 and the compound 4 for 6 days, respectively. […] Furthermore, it could be ascertained that combining of Runx2 and TAZ proteins was increased by treatment of the compounds and thus the activity of Runx2-meditated transcription was increased. The compound 5, which is an ester derivative of the compound 1 (1163), was synthesized in order to prepare a material having more excellent bioactivity, and the structure of the compound 5 obtained thus was determined. […] Therefore, the compounds of the present invention and derivatives thereof are expected to promote the differentiation of the osteoblast and thus play an innovative role in treatment of osteoporosis.

Runx2, Osteocalcin, Msx2 = assay: Real time PCR of osteoblast differentiation mark factors; type: cell-based, mouse; conditions: C3H/10T1/2 treated for 6 days, RTPCR
Protocol: An aliquot 116V and an aliquot 116VI extracted and partitioned from sponges are dissolved in a DMSO solvent, and used to treat the C3H/10T1/2 cell line, mesenchymal progenitor cells, at concentrations of 1, 2.5, 5, 10, and 20 ug/ml. […] Since then, the same experiment was performed on the compound (1163), the compound 2 (1162), the compound 3 (1161), and the compound 4 (1164), which were purely separated from the aliquots 116V and 116VI, and as a result, it could be confirmed that the osteoblast differentiation ability was increased in the compounds 1, 3, and 4. […] To study a mechanism with respect to osteoblast differentiation ability, the C3H/10T1/2 cell lines were treated with the compound 1 and the compound 4 for 6 days, respectively. […] Also, the C3H/10T1/2 cell lines were treated with the compound 1 and the compound 4 for 6 days, respectively. […] Furthermore, it could be ascertained that combining of Runx2 and TAZ proteins was increased by treatment of the compounds and thus the activity of Runx2-meditated transcription was increased. The compound 5, which is an ester derivative of the compound 1 (1163), was synthesized in order to prepare a material having more excellent bioactivity, and the structure of the compound 5 obtained thus was determined. […]

3T3-L1 cells = assay: Adipocyte differentiation inhibitory ability in 3T3-L1 cells; type: cell-based
other nuclear receptors = assay: Selectivity for various nuclear receptors, transfection assay; type: cell-based; conditions: same method as LXR assay
Protocol: Animal cell line CV-1 was used in transfection search. Cells were cultured in DMEM medium within a cell culture device containing 5% carbon dioxide at 37° C. The medium contained 10% FBS (fetal bovine serum), 100 U/ml penicillin, and 100 μg/ml streptomycin. On day 1 of the experiment, CV 1 cells were seeded in 96 well plates at 5,000 cells/well. On day 2, the seeded cells were transfected with plasmid expressing GAL-hLXR, plasmid expressing Luciferase gene, and plasmid expressing β-galactocidase by using a transfection reagent, Superfect (QIAGEN). After 16 hours, the transfected cells were treated with the compound 1 dissolved in dimethylsulfoxide (DMSO) by the concentrations, together with the agonist, TO901317 (2.5 μM). Cells treated with dimethylsulfoxide having the final concentration of 1% were used as a negative control group, and cells treated with T0901317 having the final concentration of 500 nM were used as a positive control group. The cells were cultured for 24 hours, and lysed by using a lysis buffer. […] The β-galactosidase activity, after adding of an ONPG reagent, was measured using an ELISA reader. The measured Luciferase value was corrected by activity value of β-galactosidase. […] In addition, the activities on various nuclear receptors were measured by using the same method, in order to measure selectivity for various nuclear receptors.

LXR protein = assay: Biacore direct binding experiment
AML12 cells = assay: Gene expression regulation in liver cells (real-time PCR); type: cell-based; conditions: AML12 mouse liver cells, 1 μM alone or with 500 nM T0901317, 18 hours
Protocol: (§1) In order to verify efficacy of the developed liver-X-receptor antagonist, the function of regulating gene expression was identified in mouse liver cells and human liver cells. In the present experiment, mouse liver cells, AML 12 cells and human liver cells, and HepG2 cells were used. AML12 cells were cultured in DMEM medium within a cell incubator with 5% carbon dioxide at 37° C. The medium contained 10% fetal bovine serum (FBS), 100 U/ml penicillin, and 100 μg/ml streptomycin. On day 1 of the experiment, AML12 cells are seeded in 6 well plates. On day 2, when the cells were grown to 80% confluency, the medium was replaced by the DMEM medium not containing serum, and then three wells per treatment group were treated with TO901317 and the developed liver-X-receptor antagonist. […] The extracted RNAs were quantified, and 1 μg of the extracted RNAs per each sample were used in cDNA synthesis. […] The cDNAs synthesized for the real-time polymerase chain reaction were mixed with primer selective for ACC1 or Actine gene and QuantiTech Master Mix (QIAGEN). […] The Ct values per each treatment group were compared with the Ct values of the negative control group, and the differences in expression amount of genes were calculated. […]

HepG2 cells = assay: as above; type: cell-based; conditions: HepG2 human liver cells
Protocol: as §1

For `CC(C)=CCC/C(C)=C/[C@H]1CC(C)=C[C@@]2(C=C(CO)[C@@H]3CC(=O)C(C)=C[C@@H]3O2)O1` [Compound 1], the “osteoblast differentiation ability, concentration dependence” value (C3H/10T1/2 cells; C3H/10T1/2, 1, 2.5, 5, 10, and 20 ug/ml, 6 days) was “remarkably increased at the concentrations of up to 10 ug/ml in a concentration-dependent manner”, the osteoblast differentiation ability (C3H/10T1/2 cells; C3H/10T1/2, calcium deposition) was “increased” and the “concentration at which cytotoxicity was observed” value (C3H/10T1/2 cells; C3H/10T1/2 during osteoblast differentiation) was 20000 ng/mL. For the same compound, the “transcription degree of differentiation mark factors (Runx2, Osteocalcin, Msx2, etc.)” value (Runx2, Osteocalcin, Msx2) was “remarkably increased”, the “adipocyte differentiation inhibitory ability” value (3T3-L1 cells) was “very superior adipocyte differentiation inhibitory ability” and the “activity on the other nuclear receptors” value (other nuclear receptors) was “never showed the activity”. The “direct binding with the LXR protein” value (LXR protein) was “directly bound”, the “expression of fatty acid biosynthesis genes SREBP1c, ACC, and FAS” value (AML12 cells) was “inhibited the expression” and the “expression of fatty acid biosynthesis genes SREBP1c, ACC, and FAS” value (HepG2 cells) was “inhibited the expression”.
